In assay [1] the test system is biosynthetic pathway of cholesterol. Briefly: inhibitory effect in biosynthetic pathway of cholesterol. It is filed as biochemical. The note with it: 10^-4 M; rat liver microsomes and soluble fraction; 90 min, 100 µM. The protocol:
Test for determining inhibitory effect in biosynthetic pathway of cholesterol
Each one of the test compounds was added to rat liver microsomes fraction (containing 0.2 mg of protein) and soluble fraction (containing 2 mg of protein), then the volume of the mixture was adjusted to 100 microliters by adding 0.1 M-potassium phosphate buffer solution (pH 7.4), then this mixture was incubated at 37° C. for 10 minutes.
After the incubation, the reaction was started by adding 200 microliters of a solution containing 1 mM ATP, 10 mM glucose-1-phosphate, 6 mM glutathione, 6 mM MgCl2, […], 0.25 mM […], 0.25 mM NADP, and 1 mM [1-^14 C] sodium acetate (3.0 mCi/mM).
The whole mixture was incubated at 37° C. for 90 minutes, then the reaction was terminated by adding […] of 15%-KOH (a 95% ethanol solution), next 2 mg of cholesterol was added thereto, saponified at 75° C. for 1 hour, and cholesterol was extracted with petroleum ether, the extract was concentrated to dryness. To the residue thus obtained was added with 2.5 ml of a mixture of acetone-diethyl ether (1:1) and 2.5 ml of 1%-digitonin (a 50% ethanol solution), then this solution was allowed to stand for 1 hour in cooling condition by using ice-water to precipitate cholesterol. The precipitate was washed with acetone, a mixture of acetonediethyl ether (1:1) and diethyl ether in this order, then the radioactivity of the residue was measured by using a liquid scintillation counter.
(§1) Control test was also conducted by the procedures similar to those mentioned above in the test group, except that each one of the test compounds was not used.
Inhibitory effect in biosynthetic pathway of cholesterol performed by each one of the test compounds was calculated, in terms of inhibitory ratio (%), from the formula on the basis of the radioactivity of the control group as follows: [formula] (wherein
[c] is a radioactivity of the control group, and
[d] is a radio activity of the test group).
(Liver microsomes are vesicles of endoplasmic reticulum, rich in cytochrome P450 enzymes.)

Assay [2] relates to acyl-CoA:cholesterol acyltransferase (ACAT). Briefly: inhibitory effect in the enzymatic activities of acyl-CoA:cholesterol acyltransferase (ACAT). The note with it: rat liver microsomes, 2 min; for Inhibitory effect to ACAT (inhibitory ratio), Table 5: head prints 10^14 M; for Inhibitory effect to ACAT (inhibitory ratio): 10^-4 M, 100 µM. It is filed as biochemical. The procedure:
Test for determining inhibitory effect in the enzymatic activities of acyl-CoA:cholesterol acyltranferase (ACAT)
50 Microliters of each one of the test compounds was added to rat liver microsomes fraction (containing 0.4 mg of protein) of which volume was adjusted to 150 microliters by adding 0.15 M-potassium phosphate buffer solution (pH 7.4), then the mixture was incubated at 37° C. for 10 minutes. After the incubation, the reaction was started by adding 50 microliters of 0.15 M-potassium phosphate buffer solution (pH 7.4) containing 18 nM [1-^14 C] oleoyl-CoA (10 mCi/mM) and 0.6 mg BSA (bovine serum albumin) at 37° C. for 2 minutes. The reaction was terminated by adding 1 ml of ethanol, then 4 ml of n-hexane was added and shaken, then the n-hexane layer (upper layer) was concentrated to the volume of 3 ml under nitrogen gas stream, thus obtained cholesteryl oleate was isolated by means of a silica gel thin chromatography [developing solvent=petroleum ether: diethyl ether (95:5)] and the radioactivity was measured by using a liquid scintillation counter.
as §1
Inhibitory effect in the enzymatic activities of acyl-CoA:cholesterol acyltransferase (ACAT) performed by each one of the test compounds was calculated, in terms of inhibitory ratio (%), from the formula on the basis of the radioactivity of the control group as follows: [formula] (wherein
[e] is a radioactivity of the control group, and
[f] is a radioactivity of the test group).

Assay [3] has as its system Triton WR-1339-induced hyperlipidemia in rat. In words: antilipotropic effect in Triton WR-1339-induced hyperlipidemia in rat. It is filed as in vivo, Wistar-strain male rats. The note with it: 50 mg/kg oral, vs control. From the text: Wistar-strain male rats of 5-9 week age were used as test animals. One test group consisting of six (6) rats.
[a] is a determined value obtained from the control group, and
[b] is a determined value obtained from the test group).

Each structure is given as a SMILES string. Like-named read-outs stand apart in the source and are kept apart here.

On to `CCOP(=O)(Cc1ccc(C(=O)N(c2ccccc2)C2CCCCC2)cc1)OCC` [compound 35], for which, in assay [1], the “Inhibitory ratio of cholesterol biosynthesis” value is given as 39.2%.
As for `CCOP(=O)(Cc1ccc(C(=O)N2CCN(C)CC2)cc1)OCC` [compound 56], in assay [1], the “Inhibitory ratio of cholesterol biosynthesis” value is given as 23.6%.
With `CCOP(=O)(Cc1ccc(C(=O)N(C)Cc2ccccc2)cc1)OCC` [compound 43], in assay [1], the “Inhibitory ratio of cholesterol biosynthesis” value was determined as 23.8%.
`CCOP(=O)(Cc1ccc(C(=O)N2CCN(c3ccccc3C)CC2)cc1)OCC` [compound 57]: the “Inhibitory ratio of cholesterol biosynthesis” value in assay [1] is reported as 41.9%.
Turning to `CCOP(=O)(Cc1ccc(C(=S)N(C)Cc2ccccc2)cc1)OCC` [compound 68], the “Inhibitory ratio of cholesterol biosynthesis” value in assay [1] turned out to be 57.2%.
Take `CCOP(=O)(Cc1ccc(C(=O)NCCC(c2ccccc2)c2ccccc2)cc1)OCC` [compound 31]: in assay [1], the “Inhibitory ratio of cholesterol biosynthesis” value came to 65.4%. For the same compound, in assay [2], the “Inhibitory effect to ACAT (inhibitory ratio), Table 5” value is reported as 87.7%.
As for `CCOP(=O)(Cc1ccc(C(=O)Nc2ccccc2O)cc1)OCC` [compound 28], the “Inhibitory ratio of cholesterol biosynthesis” value in assay [1] is on record as 22.1%.
As to `CCOP(=O)(Cc1ccc(C(=S)N(C)c2ccccc2)cc1)OCC` [compound 67], the “Inhibitory ratio of cholesterol biosynthesis” value in assay [1] is 32.5%.
Same read-out and setting: next, `CCOP(=O)(Cc1ccc(C(=O)N(Cc2ccccc2)c2ccc(OC)cc2)cc1)OCC` [compound 48]: 63.7%.
Still for that read-out and setting: for `CCOP(=O)(Cc1cccc(C(=O)N(c2ccccc2)c2ccc(C(=O)OC)cc2)c1)OCC` [compound 24] the value was 21.6%; for `CCOP(=O)(OCC)C(Cc1ccccc1)c1ccc(C(=O)N(Cc2ccccc2)c2cccc(C(F)(F)F)c2)cc1` (centres unmarked) [compound 51], 70.4%.
The same measure, in the same setting: next, `CCOP(=O)(Cc1ccc(C(=S)N(Cc2ccccc2)Cc2ccccc2)cc1)OCC` [compound 69]: 85.3%; `CCOP(=O)(Cc1ccc(C(=O)N(Cc2ccccc2)C(C)C)cc1)OCC` [compound 44]: 46.2%.
Regarding `CCOP(=O)(Cc1ccc(C(=O)N(Cc2ccccc2)c2ccccc2F)cc1)OCC` [compound 47], in assay [1], the “Inhibitory ratio of cholesterol biosynthesis” value is 67.2%.
On to `CCOP(=O)(OCC)C(C)c1ccc(C(=O)N(CCc2ccccc2)Cc2ccccc2)cc1` (centres unmarked) [compound 62], for which the “Inhibitory ratio of cholesterol biosynthesis” value in assay [1] was 80.2%.
In the case of `CCOP(=O)(Cc1ccc(C(=O)Nc2ccccc2Br)cc1)OCC` [compound 55], in assay [1], the “Inhibitory ratio of cholesterol biosynthesis” value was 57.1%.
For the compound `CCOP(=O)(Cc1ccc(C(=O)N(Cc2ccc(OC)cc2)c2ccccc2)cc1)OCC` [compound 38], the “Inhibitory ratio of cholesterol biosynthesis” value in assay [1] was 85.2%.
Take `CCOP(=O)(Cc1ccc(C(=O)N(Cc2ccccc2)Cc2ccccc2)cc1)OCC` [compound 54]: in assay [1], the “Inhibitory ratio of cholesterol biosynthesis” value was found to be 69.7%.
Consider `CCOP(=O)(Cc1ccc(C(=O)N(CCc2ccccc2)c2ccccc2)cc1)OCC` [compound 42], for which the “Inhibitory ratio of cholesterol biosynthesis” value in assay [1] was found to be 86.7%.
Still for that read-out and setting: for `CCOP(=O)(Cc1ccc(C(=O)N(Cc2ccccc2)c2ccc(C#N)cc2)cc1)OCC` [compound 49] the value was 75.2%; for `CCOP(=O)(Cc1ccc(C(=O)N(Cc2ccccc2)c2ccc(OC)c(OC)c2)cc1)OCC` [compound 53], 59.0%.
On to `CCOP(=O)(Cc1ccc(C(=O)Nc2ccccc2C(=O)O)cc1)OCC` [compound 66], for which the “Inhibitory effect to ACAT (inhibitory ratio)” value in assay [2] amounted to 26.0%.
Turning to `CCOP(=O)(Cc1ccc(C(=O)N2CCN(Cc3ccccc3)CC2)cc1)OCC` [compound 61], in assay [1], the “Inhibitory ratio of cholesterol biosynthesis” value amounted to 58.3%.
`CCOP(=O)(Cc1ccc(C(=O)N(c2ccccc2)c2ccccc2)cc1)OCC` [compound 36]: the “Inhibitory ratio of cholesterol biosynthesis” value in assay [1] came out at 61.1%. The “Inhibitory effect to ACAT (inhibitory ratio), Table 5” value in assay [2] turned out to be 63.1%.
Take `CCOP(=O)(Cc1ccc(C(=O)N(Cc2ccccc2F)c2ccccc2)cc1)OCC` [compound 41]: the “Inhibitory ratio of cholesterol biosynthesis” value in assay [1] is listed as 84.2%. For the same compound, the “Inhibitory effect to ACAT (inhibitory ratio)” value in assay [2] turned out to be 84.0%.
For the compound `CCCCCCNC(=O)c1ccc(C(C)P(=O)(OCC)OCC)cc1` (centres unmarked) [compound 63], the “Inhibitory ratio of cholesterol biosynthesis” value in assay [1] came out at 58.9%. Also, the “Inhibitory effect to ACAT (inhibitory ratio)” value in assay [2] was 88.9%.
As for `CCCCCCNC(=O)c1ccc(C(C)P(=O)(OC(C)C)OC(C)C)cc1` (centres unmarked) [compound 26], the “Inhibitory ratio of cholesterol biosynthesis” value in assay [1] is recorded as 67.4%. In addition, in assay [2], the “Inhibitory effect to ACAT (inhibitory ratio), Table 5” value amounted to 88.9%.
For `O=C(Nc1c(Cl)cccc1Cl)c1ccc(CP(=O)(Oc2ccccc2)Oc2ccccc2)cc1` [compound 29], the “Inhibitory ratio of cholesterol biosynthesis” value in assay [1] came out at 35.8%. The “Inhibitory effect to ACAT (inhibitory ratio), Table 5” value in assay [2] was 73.9%.
As for `CCCCCCCCC(c1ccc(C(=O)N(CCCCCCCC)c2ccccc2)cc1)P(=O)(OCC)OCC` (centres unmarked) [compound 34], the “Inhibitory ratio of cholesterol biosynthesis” value in assay [1] is on record as 85.2%.
As to `CCOP(=O)(Cc1ccc(C(=O)Nc2ccc(C)cc2)cc1)OCC` [compound 22], the inhibition in vivo at 50 mg/kg in assay [3] (24 hours after Triton WR-1339 (400 mg/kg, tail vein), read-out: lowering ratio of serum triglycerides, 24 hours after Triton WR-1339) was 38.6%; in assay [3] (24 hours after Triton WR-1339 (400 mg/kg, tail vein), read-out: lowering ratio of total serum cholesterol, 24 hours after Triton WR-1339), 6.9%; in assay [3] (48 hours after Triton WR-1339 (400 mg/kg, tail vein), read-out: lowering ratio of serum triglycerides, 48 hours after Triton WR-1339) it was 28.1%; in assay [3] (48 hours after Triton WR-1339 (400 mg/kg, tail vein), read-out: lowering ratio of total serum cholesterol, 48 hours after Triton WR-1339), 29%. In addition, the “Inhibitory ratio of cholesterol biosynthesis” value in assay [1] was 32.2%.
For `CCOP(=O)(Cc1ccc(C(=O)N(Cc2ccc(C)cc2)c2ccccc2)cc1)OCC` [compound 37], the “Inhibitory ratio of cholesterol biosynthesis” value in assay [1] was found to be 82.8%.
The same measure, in the same setting: for `CCOP(=O)(Cc1ccccc1C(=O)N(Cc1ccc(C#N)cc1)c1ccc(OC)cc1)OCC` [compound 25] the value was 20.1%.
Take `CCOP(=O)(Cc1ccc(C(=S)Nc2ccccc2)cc1)OCC` [compound 70]: the “Inhibitory effect to ACAT (inhibitory ratio)” value in assay [2] is 39.4%.
As for `CCOP(=O)(Cc1ccc(C(=O)N(Cc2cccc(C(F)(F)F)c2)c2ccccc2)cc1)OCC` [compound 40], the “Inhibitory ratio of cholesterol biosynthesis” value in assay [1] was 91.6%.
With `CCOP(=O)(Cc1ccc(C(=O)NCCc2ccc(OC)c(OC)c2)cc1)OCC` [compound 30], the “Inhibitory ratio of cholesterol biosynthesis” value in assay [1] is listed as 28.9%.
For `CCCCCCCCN(C(=O)c1ccc(CP(=O)(OCC)OCC)cc1)c1ccccc1` [compound 33], the “Inhibitory ratio of cholesterol biosynthesis” value in assay [1] is 89.6%.
On to `CCOP(=O)(Cc1ccc(C(=O)N(Cc2ccccc2)c2ccc(C)cc2)cc1)OCC` [compound 46], for which the “Inhibitory ratio of cholesterol biosynthesis” value in assay [1] was 59.1%.
Take `CCOP(=O)(Cc1ccc(C(=O)N2CCN(c3ccc(OC)cc3)CC2)cc1)OCC` [compound 59]: the “Inhibitory ratio of cholesterol biosynthesis” value in assay [1] is 55.1%.
Regarding `CCOP(=O)(Cc1ccc(C(=O)N(Cc2ccccc2)C2CCCCC2)cc1)OCC` [compound 45], in assay [1], the “Inhibitory ratio of cholesterol biosynthesis” value stood at 76.9%.
Turning to `CCOP(=O)(Cc1cccc(C(=O)Nc2ccccc2)c1)OCC` [compound 64], in assay [2], the “Inhibitory effect to ACAT (inhibitory ratio), Table 5” value came to 37.6%.
On to `CCOP(=O)(Cc1ccc(C(=O)N(Cc2ccc([N+](=O)[O-])cc2)c2ccccc2)cc1)OCC` [compound 39], for which the “Inhibitory ratio of cholesterol biosynthesis” value in assay [1] is given as 74.6%.
For `CCOP(=O)(Cc1ccc(C(=O)N2CCN(c3cccc(C(F)(F)F)c3)CC2)cc1)OCC` [compound 60], the “Inhibitory ratio of cholesterol biosynthesis” value in assay [1] amounted to 24.9%.
`CCOP(=O)(Cc1ccc(C(=O)N(Cc2ccccc2)c2ccccc2)cc1)OCC` [compound 65]: the “Inhibitory effect to ACAT (inhibitory ratio)” value in assay [2] is listed as 87.7%.

(Values after US5081112A, “Method for treating hyperlipidemia” (Otsuka Pharmaceutical Factory Inc., priority 1986, dated 1992).)
